Article PMC11434354, “Metabolic and Pharmacokinetic Profiling Studies of N, N-Dimethylaniline-Heliamine in Rats by UHPLC-Q-Orbitrap MS/MS” (Molecules, 2024)

Assay: Metabolite identification of DH in rat plasma, urine, feces and rat liver microsomes by UHPLC-Q-Orbitrap MS/MS
Assay type: in vivo
Set-up: key: F*: feces; U*: urine; P*: plasma; LM*: Liver microsome
Details: rat plasma
Description: For the analysis of DH metabolites, the same UHPLC-MS/MS system was used for the plasma analysis, and the ACQUIT UHPLC BEH C18 column was also utilized. Mobile phase A consisted of 0.1% formic acid in water (v/v), while mobile phase B comprised acetonitrile. The flow rate was maintained at 0.2 mL/min, with a 10 µL injection volume. The column temperature was kept constant at 35 °C, and the RS autosampler temperature was maintained at 10 °C. The gradient elution was as follows: 0–3 min(5%B), 3–11 min (7%B), 11–18 min (7%B), and 18–45 min (30%B). A full MS/dd MS^2 mode in positive heated electrospray ionization (HESI) with 140,000 (for MS) and 17,500 (for MS/MS) resolutions was used for the Q–Exactive Plus Orbitrap MS. The compounds identified in full MS/dd MS^2 mode will be scanned using PRM scanning. The following MS parameters were employed: AGC target, 1 × 10^6; Maximum IT, 100 ms; Spray voltage, 3.2 kV; Capillary temp, 320 °C; S-lens RF level, 55; HCD Energy 20, 40, and 60.
Rat liver microsomes were used for in vitro experiments to study DH metabolism in rats more quickly and easily. After that, the cofactors of phases I and II were added to create the phase I and phase II metabolic systems. The composition of the reagent kit and the procedure can be found in our previous work.
For the plasma study, 100 µL of plasma was obtained from rats at 0.5, 1, 2, and 4 h after medicine administration. Then, 300 µL of acetonitrile was added to the above plasma, vortexed for 1 min, and centrifuged for 7 min. The supernatant was collected, and the remaining liquid was dried using nitrogen gas at 40 °C. The blow-dried samples were re-dissolved in 100 µL methanol, sonicated for 1 min, and centrifuged for 7 min.
Urine was collected during the period spanning from 0 to 48 h following administration, with each period’s combined urine comprising 10 mL and 30 mL of acetonitrile added thereto. After a 10 min interval of sonication, the urine samples were transferred into 1.5 mL centrifuge tubes, vortexed for 1 min, and then centrifuged at a speed of 14,000 rpm for 10 min. Successively, the supernatant was merged and subjected to drying by nitrogen gas at 40 °C. The blow-dried samples were re-dissolved in 100 µL of methanol, sonicated for 1 min, and centrifuged for 7 min.
For the fecal study, feces were collected within 0–48 h following administration, dried to powder at room temperature in a shaded area, and combined to yield 8 mL per period, to which 40 mL of acetonitrile was added. Following 30 min of sonication, the samples were transferred to 1.5 mL centrifuge tubes and centrifuged at 14,000 rpm for 10 min. The supernatant was collected and dried with nitrogen at 40 °C before analysis via UHPLC-MS/MS. Before analysis, the blow-dried samples were re-dissolved in 100 µL of methanol, sonicated for 1 min, and centrifuged for 7 min.
Compound Discovery 3.3 was used for data processing. The MS spectrometric features mainly include retention time, exact mass, peak intensity, and fragment ions. The data processing mainly included selecting spectra, aligning retention times, creating pattern traces, creating fish traces, generating expected compounds, finding expected compounds, grouping expected compounds, fish scoring, and marking background compounds. The mass tolerance is less than 5 ppm.

Row | Rat and LM* (matrices in which DH or the metabolite was detected) | Structure (SMILES)
1 | F* | CN(C)c1ccc(-c2nccc3cc(O)c(O)cc23)cc1 [M6–A]
2 | P*, U*, LM* | CNc1ccc(C2NCCc3cc(OC)c(OC)cc32)cc1 (stereo not shown) [M4–C]
3 | U*, LM* | CN(C)c1ccc(C2NCCc3cc(O)c(O)cc32)cc1 (stereo not shown) [M2–A]
4 | P*, U*, LM* | COc1cc2c(cc1OC)C(c1ccc(N)cc1)NCC2 (stereo not shown) [M2–B]
